The record followed here is patent US4368199A, “Novel derivatives of 3,4,5-trimethoxy cinnamoyl piperazine, their salts, the process for preparing the same and their application in therapeutics” (Delalande S.A., priority 1980, dated 1983).

Where a name gives a salt, the structure may show the parent alone. Read-outs that look alike come from different tables or passages of the source.

A short description of series [1]: Acute toxicity in the mouse (MILLER and TAINTER method). As to conditions: in vivo; for LD50: read-out: LD 50 (mouse). The method, then:
The acute toxicity was assessed in accordance with the MILLER and TAINTER method (Proc. Sci. Exp. Biol. Med. 1944, 57, 261)

The test system of another series is dogs. As to the kind of experiment: Haemodynamic tests on dogs anaesthetized with sodic pentobarbital (arterial pressure, cardiac frequency, coronary flow, cardiac contractile force). It counts as in vivo. The following applies: dog; for change in vivo at 0.625 mg/kg / change in vivo at 2.5 mg/kg: Canis lupus familiaris, iv. How it is done:
Tests were carried out on dogs anaesthetized with sodic pentobarbital (30 mg/kg/i.v.) and the compounds of formula (I) were administered intravenously. The activity on the cardiac contractile force was measured with a BRODIE and WALTON stress gauge fixed to the left ventricle.
The arterial pressure was measured at the femoral artery with a SANBORN pressure sensor.
The cardiac frequency was automatically counted by means of a cardiotachymeter from the pulse pressure wave.
The coronary flow was measured by means of an electromagnetic probe of the STATHAM or BIOTRONEX type at the coronary artery.

The mark [2] stands for this setting: 0.625 mg/kg/i.v., read-out: Increase of the cardiac contractile force.
[3] abbreviates: 0.625 mg/kg/i.v., read-out: Increase of the coronary flow.
The mark [4] stands for this setting: 0.625 mg/kg/i.v., read-out: Variation of the average arterial pressure.
Where [5] appears, read: 0.625 mg/kg/i.v., read-out: Variation of the cardiac frequency.
Where [6] appears, read: 2.5 mg/kg/i.v., read-out: Increase of the coronary flow.
The mark [7] stands for this setting: 2.5 mg/kg/i.v., read-out: Variation of the average arterial pressure.
Setting [8] is: 2.5 mg/kg/i.v., read-out: Variation of the cardiac frequency.
Setting [9] is: 2.5 mg/kg/i.v., read-out: Increase of the cardiac contractile force.
Where [10] appears, read: po, at 1000 mg/kg, read-out: LD 50 column: percentage in parentheses (p.o.).

Turning to `COc1ccc(CN2CCN(C(=O)C=Cc3cc(OC)c(OC)c(OC)c3)CC2)cc1OC` [Compound 2], the LD50 in series [1] (iv) was 105 mg/kg. For the same compound, the change in vivo at 0.625 mg/kg in the series on dogs (setting [2]) is 71%; in the series with dogs (setting [3]) it was 93%; in the series with dogs (setting [4]) it was -12%; in the series on dogs (setting [5]), 6%. The change in vivo at 2.5 mg/kg is 76 to 398% in the series on dogs (setting [6]), -25% in the series on dogs (setting [7]) and 8% in the series on dogs (setting [8]). The entries for the “Increase of the coronary flow: duration” value in the series with dogs (0.625 mg/kg/i.v.) and in the series with dogs (2.5 mg/kg/i.v.) were < 20 mn and > 30 mn, respectively. Further, the “Variation of the cardiac frequency: duration” value with dogs (0.625 mg/kg/i.v.) is recorded as < 5 mn. Further, the “Increase of the cardiac contractile force” value with dogs (2.5 mg/kg/i.v.) is listed as “+58 to”. Besides, the “Increase of the cardiac contractile force: duration” value in the series on dogs (2.5 mg/kg/i.v.) is > 308 mn.
In the case of `COc1cc(C=CC(=O)N2CCN(CCc3cccc(O)c3)CC2)cc(OC)c1OC` [Compound 3], in series [1] (iv), the LD50 is > 200 mg/kg. The change in vivo at 0.625 mg/kg was 47% in the series with dogs (setting [2]), 26% in the series on dogs (setting [3]), -9% with dogs (setting [4]) and 0% with dogs (setting [5]). For the same compound, the change in vivo at 2.5 mg/kg is 62% in the series on dogs (setting [9]), 62% in the series with dogs (setting [6]), -36% in the series on dogs (setting [7]) and 7% with dogs (setting [8]). Besides, in the series on dogs (0.625 mg/kg/i.v.), the “Increase of the cardiac contractile force: duration” value turned out to be 30 mn. Moreover, the “Increase of the coronary flow: duration” value in the series with dogs (0.625 mg/kg/i.v.) was determined as 5 mn. The “Variation of the average arterial pressure: duration” value in the series with dogs (2.5 mg/kg/i.v.) is listed as > 30 mn.
`COc1cc(C=CC(=O)N2CCN(CC(=O)c3ccc(OC)c(OC)c3OC)CC2)cc(OC)c1OC` [Compound 7]: in series [1] (setting [10]), the mortality is 0%. For the same compound, the change in vivo at 0.625 mg/kg with dogs (setting [2]) was 69%; in the series on dogs (setting [3]), 277%; with dogs (setting [4]) it was -22%; in the series with dogs (setting [5]), -2 to 15%. The change in vivo at 2.5 mg/kg with dogs (setting [9]) was 51%; in the series on dogs (setting [6]), 416%; in the series with dogs (setting [7]) it was -35%; with dogs (setting [8]) it was -8 to 9%. The “Increase of the coronary flow: duration” value was < 5 mn in the series on dogs (0.625 mg/kg/i.v.) and < 20 mn with dogs (2.5 mg/kg/i.v.). Besides, the “Increase of the cardiac contractile force: duration” value in the series on dogs (2.5 mg/kg/i.v.) is listed as < 10 mn.
`COc1cc(C=CC(=O)N2CCN(CC(=O)c3ccc(OC)c4c3OCCO4)CC2)cc(OC)c1OC` [Compound 10]: in series [1] (iv), the LD50 stood at 180 mg/kg. Also, the change in vivo at 0.625 mg/kg with dogs (setting [2]) was 9%; in the series with dogs (setting [3]), 39%; with dogs (setting [4]), -7%; in the series with dogs (setting [5]), 2%. For the same compound, the change in vivo at 2.5 mg/kg was 53% in the series with dogs (setting [9]), 46% in the series on dogs (setting [6]), -16% with dogs (setting [7]) and 12% in the series with dogs (setting [8]). In addition, the “Increase of the cardiac contractile force: duration” value was < 10 mn with dogs (0.625 mg/kg/i.v.) and 10 mn in the series with dogs (2.5 mg/kg/i.v.). Also, the “Variation of the average arterial pressure: duration” value in the series on dogs (0.625 mg/kg/i.v.) is < 5 mn; with dogs (2.5 mg/kg/i.v.), > 30 mn. The “Variation of the cardiac frequency: duration” value with dogs (0.625 mg/kg/i.v.) is on record as < 5 mn; in the series with dogs (2.5 mg/kg/i.v.), > 30 mn.
As to `COc1cc(C=CC(=O)N2CCN(Cc3ccc(NC(C)=O)cc3)CC2)cc(OC)c1OC` [Compound 41], the LD50 in series [1] (iv) is > 200 mg/kg. Further, the change in vivo at 2.5 mg/kg in the series with dogs (setting [9]) was 35%; in the series on dogs (setting [7]), -36%; in the series on dogs (setting [8]), -16%.
As to `CNC(=O)Nc1ccc(CCN2CCN(C(=O)C=Cc3cc(OC)c(OC)c(OC)c3)CC2)cc1` [Compound 54], in series [1] (iv), the LD50 was > 200 mg/kg. In addition, the change in vivo at 2.5 mg/kg is 48% in the series on dogs (setting [9]), 181% in the series on dogs (setting [6]), -9% with dogs (setting [7]) and 4% in the series with dogs (setting [8]).
For the compound `COc1cc(C=CC(=O)N2CCN(CC(=O)c3ccc4ccccc4c3)CC2)cc(OC)c1OC` [Compound 62], the LD50 in series [1] (iv) was found to be 45 mg/kg. In the series on dogs (setting [9]), the change in vivo at 2.5 mg/kg was found to be 43%. For the same compound, the change in vivo at 2.5 mg/kg with dogs (setting [7]) was -14%. Moreover, the change in vivo at 2.5 mg/kg in the series with dogs (setting [8]) was determined as 4%. In addition, in the series with dogs (2.5 mg/kg/i.v.), the “Increase of the cardiac contractile force: duration” value is recorded as > 30 mn, the “Variation of the average arterial pressure: duration” value stood at 10 mn and the “Variation of the cardiac frequency: duration” value was 5 mn.
Turning to `COc1ccc(OC)c(C(=O)CN2CCN(C(=O)C=Cc3cc(OC)c(OC)c(OC)c3)CC2)c1` [Compound 70], the LD50 in series [1] (iv) amounted to 168 mg/kg. Besides, the change in vivo at 2.5 mg/kg in the series on dogs (setting [9]) is 50%; in the series on dogs (setting [6]), 27%; with dogs (setting [7]) it was -21%; in the series with dogs (setting [8]) it was 5%.
As for `COc1ccc(C(O)CN2CCN(C(=O)C=Cc3cc(OC)c(OC)c(OC)c3)CC2)c(OC)c1` (stereo not shown) [Compound 89], in series [1] (iv), the LD50 is > 100 mg/kg. Also, the change in vivo at 2.5 mg/kg with dogs (setting [9]) is 51%; with dogs (setting [7]), -38%; in the series with dogs (setting [8]), -10%. For the same compound, in the series with dogs (2.5 mg/kg/i.v.), the “Variation of the average arterial pressure: duration” value is recorded as > 30 mn.
In the case of `COc1ccc(OC)c(C(O)CN2CCN(C(=O)C=Cc3cc(OC)c(OC)c(OC)c3)CC2)c1` (stereo not shown) [Compound 90], the mortality in series [1] (setting [10]) is 80%. Besides, the change in vivo at 2.5 mg/kg is 42% in the series on dogs (setting [9]), 15% with dogs (setting [6]), -11% with dogs (setting [7]) and 0% with dogs (setting [8]).
Take `CNC(=O)Nc1ccc(C(O)CN2CCN(C(=O)C=Cc3cc(OC)c(OC)c(OC)c3)CC2)cc1` (stereo not shown) [Compound 95]: the LD50 in series [1] (iv) is > 200 mg/kg. In addition, the change in vivo at 2.5 mg/kg is 21% with dogs (setting [9]), 27% with dogs (setting [6]), -20% in the series on dogs (setting [7]) and 8% in the series with dogs (setting [8]). Further, in the series on dogs (2.5 mg/kg/i.v.), the “Increase of the cardiac contractile force: duration” value amounted to 10 mn.
In the case of `COc1ccc(CC(O)CN2CCN(C(=O)C=Cc3cc(OC)c(OC)c(OC)c3)CC2)cc1OC` (stereo not shown) [Compound 102, 3-[4-(3,4,5-trimethoxycinnamoyl) 1-piperazinyl]1-(3,4-dimethoxy)phenyl 2-propanol hydrochloride hydrate], the LD50 in series [1] (iv) is > 200 mg/kg. Besides, the change in vivo at 2.5 mg/kg with dogs (setting [9]) is 13%; in the series on dogs (setting [6]), 34%; in the series with dogs (setting [7]), -26%; in the series with dogs (setting [8]), -4%. Besides, the “Increase of the cardiac contractile force: duration” value with dogs (2.5 mg/kg/i.v.) came out at 10 mn. Besides, in the series on dogs (2.5 mg/kg/i.v.), the “Variation of the average arterial pressure: duration” value is recorded as > 30 mn.
As to `COc1cc(C=CC(=O)N2CCN(CCc3c[nH]c4ccccc34)CC2)cc(OC)c1OC` [Compound 105], in series [1] (iv), the LD50 was > 200 mg/kg. In addition, the change in vivo at 2.5 mg/kg is 17% in the series on dogs (setting [9]), 55% with dogs (setting [6]), -34% in the series with dogs (setting [7]) and 0% with dogs (setting [8]). Further, the “Variation of the average arterial pressure: duration” value in the series with dogs (2.5 mg/kg/i.v.) is reported as > 30 mn.
With `COc1cc(C=CC(=O)N2CCN(C3CCc4cc(O)c(O)cc4C3)CC2)cc(OC)c1OC` (stereo not shown) [Compound 108, 2-[4-(3,4,5-trimethoxycinnamoyl) 1-piperazinyl] 1,2,3,4-tetrahydro 6,7-dihydroxy naphthyl hydrate], in series [1] (iv, at 200 mg/kg, read-out: LD 50 column: percentage in parentheses), the mortality was 20%. Further, in series [1] (iv), the LD50 was found to be 200 mg/kg. Also, the change in vivo at 2.5 mg/kg in the series with dogs (setting [9]) is 44%; in the series on dogs (setting [6]) it was 29%; in the series with dogs (setting [7]), -20%; in the series on dogs (setting [8]), 3%. Besides, in the series with dogs (2.5 mg/kg/i.v.), the “Variation of the average arterial pressure: duration” value is > 30 mn.
